The source of these data is paper PMC4159592 (Chembiochem, 2014).

In the experiment the target is CYP126 (Mycobacterium tuberculosis, UniProt P9WPN9). Kind of experiment: biochemical. It is filed as binding.
Sequence of CYP126 (P9WPN9 whole entry): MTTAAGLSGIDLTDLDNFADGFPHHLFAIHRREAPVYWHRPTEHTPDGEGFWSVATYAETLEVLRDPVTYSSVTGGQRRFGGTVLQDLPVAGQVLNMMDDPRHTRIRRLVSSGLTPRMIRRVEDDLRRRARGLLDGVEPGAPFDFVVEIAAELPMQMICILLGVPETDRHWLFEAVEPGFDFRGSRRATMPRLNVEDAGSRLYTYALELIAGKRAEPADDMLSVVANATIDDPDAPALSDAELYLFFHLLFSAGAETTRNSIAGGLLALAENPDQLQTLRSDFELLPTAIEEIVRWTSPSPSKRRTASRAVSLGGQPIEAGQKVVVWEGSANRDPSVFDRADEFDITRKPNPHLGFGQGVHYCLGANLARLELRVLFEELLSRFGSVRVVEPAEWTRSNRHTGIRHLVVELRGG

Consider `Oc1c(Cl)c(Cl)c(Cl)c(Cl)c1Cl` [TB23, pentachlorophenol], for which binding was characterised by a dissociation constant (Kd) of 150 µM.
